Measurements reported in ChEMBL document CHEMBL4393659, “Insights into the chemistry and therapeutic potential of furanones: A versatile pharmacophore” (Eur J Med Chem, 2019).
Converted amounts (≈) assume the structure as drawn.

Key:
Escherichia coli = test: Inhibition of swarming motility of Escherichia coli at 13 ug/cm2; assay type: functional
Bacillus subtilis [1] = test: Antibacterial activity against Bacillus subtilis assessed as cell viability at 40 ug/ml incubated for 3 days by confocal microscopy; assay type: functional
Bacillus subtilis [2] = test: Antibiofilm activity in Bacillus subtilis assessed as reduction in biofilm thickness at 40 ug/ml incubated for 3 days by confocal microscopy; assay type: functional; parameters: scale not given: the % may be the effect or the level left
[3] = Antioxidant activity assessed as superoxide anion scavenging activity at pH 7.4 phosphate buffer incubated for 5 mins by NBT assay; assay type: functional
[4] = Antioxidant activity assessed as DPPH radical scavenging activity measured for each 5 mins for 3 hrs; assay type: functional
Liver = test: Antioxidant activity in rat liver microsomes assessed as reduction in ferrous salt/ascorbic acid-induced lipid peroxidation of membrane lipids by measuring malondialdehyde level after 90 mins by spectrophotometry; assay type: functional, Microsome; conditions: 1.5 h
Lichtheimia corymbifera [5] = test: Antifungal activity against Absidia corymbifera 272 assessed as reduction in fungal cell viability measured after 24 and 72 hrs by photometry; assay type: functional
Nakaseomyces glabratus = test: Antifungal activity against Candida glabrata 20/I assessed as reduction in fungal cell viability measured after 24 and 72 hrs by photometry; assay type: functional
Aspergillus fumigatus [6] = test: Antifungal activity against Aspergillus fumigatus assessed as reduction in fungal cell viability by broth dilution method; assay type: functional
[7] = test system: Trichophyton mentagrophytes; test: Antifungal activity against Trichophyton mentagrophytes 445 assessed as reduction in fungal cell viability measured after 72 and 120 hrs by photometry; assay type: functional
Candida albicans [8] = test: Antifungal activity against Candida albicans ATCC 44859 assessed as reduction in fungal cell viability measured after 24 and 48 hrs by photometry; assay type: functional
Candida tropicalis = test: Antifungal activity against Candida tropicalis 156 assessed as reduction in fungal cell viability measured after 24 and 72 hrs by photometry; assay type: functional
Aspergillus fumigatus [9] = test: Antifungal activity against Aspergillus fumigatus 231 assessed as reduction in fungal cell viability measured after 24 and 72 hrs by photometry; assay type: functional
Lichtheimia corymbifera [10] = test: Antifungal activity against Absidia corymbifera assessed as reduction in fungal cell viability by broth dilution method; assay type: functional
Trichosporon beigelii = test: Antifungal activity against Trichosporon beigelii 1188 assessed as reduction in fungal cell viability measured after 24 and 72 hrs by photometry; assay type: functional
Pichia kudriavzevii = test: Antifungal activity against Candida krusei E28 assessed as reduction in fungal cell viability measured after 24 and 48 hrs by photometry; assay type: functional
[11] = test system: Mycobacterium tuberculosis; test: Antimycobacterial activity against Mycobacterium tuberculosis H37Rv ATCC 27294 at 0.19 to 100 ug/ml incubated for 4 days by microplate alamar blue assay; assay type: functional, organism-based; conditions: H37Rv ATCC 27294, 96 h
Rattus norvegicus [12] = test: Antiinflammatory activity in Wistar rat assessed as inhibition of carrageenan-induced edema measured upto 4 hrs; assay type: functional
[13] = Ulcerogenicity in Wistar rat assessed as gastric lesions; assay type: toxicity; conditions: in vivo
Candida albicans [14] = test: Antifungal activity against Candida albicans assessed as inhibition of fungal cell growth incubated for 72 hrs by disk diffusion method relative to control; assay type: functional
Rattus norvegicus [15] = test: Antiinflammatory activity in rat assessed as inhibition of carrageenan-induced paw edema at 10 mg/kg , po and measured after 4 hrs of carrageenan addition relative to control; assay type: functional
Mus musculus [16] = test: Analgesic activity in albino mouse assessed as inhibition of acetic acid induced writhing at 10 mg/kg , po; assay type: functional
Globisporangium ultimum = test: Antifungal activity against Pythium ultimum assessed as reduction in fungal cell growth incubated for 48 hrs by broth dilution method; assay type: functional
Diaphania hyalinata = test: Insecticidal activity against Diaphania hyalinata assessed as reduction in living insects observed after 48 hrs; assay type: functional
[17] = molecular target: Prostaglandin G/H synthase 2 (Oryctolagus cuniculus, UniProt O02768); test: Inhibition of COX2 in rabbit whole blood assessed as reduction of LPS-induced PGE2 accumulation at 10 to 10000 nM preincubated with LPS followed by compound addition and incubated for 6 or 24 hrs by EIA method; assay type: tissue-based
Prostaglandin G/H synthase 2 (Oryctolagus cuniculus, UniProt O02768), sequence (O02768 whole entry): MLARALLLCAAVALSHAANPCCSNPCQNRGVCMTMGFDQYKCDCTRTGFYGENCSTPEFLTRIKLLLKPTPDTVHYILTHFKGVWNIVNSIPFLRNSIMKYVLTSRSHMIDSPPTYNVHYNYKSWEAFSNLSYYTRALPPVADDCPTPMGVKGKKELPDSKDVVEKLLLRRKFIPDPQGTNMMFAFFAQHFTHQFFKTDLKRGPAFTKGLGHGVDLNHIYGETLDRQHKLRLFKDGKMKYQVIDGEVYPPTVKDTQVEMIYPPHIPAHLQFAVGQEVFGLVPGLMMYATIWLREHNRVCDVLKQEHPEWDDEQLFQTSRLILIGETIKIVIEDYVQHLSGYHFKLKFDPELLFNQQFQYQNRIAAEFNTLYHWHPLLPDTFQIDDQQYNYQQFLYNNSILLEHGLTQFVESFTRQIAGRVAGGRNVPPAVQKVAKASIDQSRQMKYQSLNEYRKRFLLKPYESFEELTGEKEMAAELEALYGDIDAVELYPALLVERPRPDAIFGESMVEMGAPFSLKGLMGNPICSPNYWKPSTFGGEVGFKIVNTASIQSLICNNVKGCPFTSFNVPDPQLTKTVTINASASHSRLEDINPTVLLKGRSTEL

Mus musculus [18] = test: Antiinflammatory activity in carrageenan-induced C57Bl/6 mouse model of inflammation assessed as inhibition of PGE2 accumulation in air pouch at 0.1 to 10 mg/kg , po pretreated with carrageenan for 20 hrs and followed by compound administration and measured after 4 hrs; assay type: functional; conditions: C57B1/6, po
[19] = molecular target: Prostaglandin G/H synthase 2 (Cavia porcellus, UniProt P70682); test: Inhibition of COX2 in guinea pig blood assessed as reduction of LPS-induced PGE2 accumulation at 10 to 10000 nM preincubated with LPS followed by compound addition and incubated for 6 or 24 hrs by EIA method; assay type: tissue-based
Prostaglandin G/H synthase 2 (Cavia porcellus, UniProt P70682), sequence (P70682 whole entry): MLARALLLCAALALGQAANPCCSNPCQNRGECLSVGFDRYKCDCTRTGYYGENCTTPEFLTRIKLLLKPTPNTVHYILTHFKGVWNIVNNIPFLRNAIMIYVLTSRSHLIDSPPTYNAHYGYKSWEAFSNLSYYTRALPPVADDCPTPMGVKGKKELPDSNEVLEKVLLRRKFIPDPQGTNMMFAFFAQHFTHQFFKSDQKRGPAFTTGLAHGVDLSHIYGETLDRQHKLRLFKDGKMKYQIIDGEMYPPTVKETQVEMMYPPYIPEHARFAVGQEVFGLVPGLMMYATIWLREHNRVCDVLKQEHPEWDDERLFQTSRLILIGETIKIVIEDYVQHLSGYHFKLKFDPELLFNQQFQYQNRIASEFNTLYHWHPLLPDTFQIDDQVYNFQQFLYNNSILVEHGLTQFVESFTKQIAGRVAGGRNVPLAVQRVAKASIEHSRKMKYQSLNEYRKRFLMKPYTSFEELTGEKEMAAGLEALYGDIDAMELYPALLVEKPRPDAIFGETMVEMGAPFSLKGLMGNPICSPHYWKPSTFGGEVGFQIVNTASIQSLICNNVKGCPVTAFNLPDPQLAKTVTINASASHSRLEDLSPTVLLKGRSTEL

Tyrosinase = Tyrosinase (Homo sapiens, UniProt P14679); test: Inhibition of tyrosinase (unknown origin) assessed as reduction in melanin formation
Tyrosinase, sequence (P14679 whole entry): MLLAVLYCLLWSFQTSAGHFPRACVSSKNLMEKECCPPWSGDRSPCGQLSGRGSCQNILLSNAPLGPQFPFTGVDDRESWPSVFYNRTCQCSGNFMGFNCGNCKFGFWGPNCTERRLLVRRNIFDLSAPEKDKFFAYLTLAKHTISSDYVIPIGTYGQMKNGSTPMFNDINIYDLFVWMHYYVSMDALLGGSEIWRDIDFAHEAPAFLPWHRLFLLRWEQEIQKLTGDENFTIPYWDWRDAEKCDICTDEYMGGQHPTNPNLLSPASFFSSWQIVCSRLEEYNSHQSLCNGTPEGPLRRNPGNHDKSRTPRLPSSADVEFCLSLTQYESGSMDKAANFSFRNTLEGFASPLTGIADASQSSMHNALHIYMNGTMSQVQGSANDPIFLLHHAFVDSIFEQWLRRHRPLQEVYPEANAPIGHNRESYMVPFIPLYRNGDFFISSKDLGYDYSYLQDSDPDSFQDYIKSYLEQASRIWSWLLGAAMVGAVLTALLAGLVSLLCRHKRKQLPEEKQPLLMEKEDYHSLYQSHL

CYP3A4 = test: Inhibition of CYP3A4 in Sprague-Dawley rat liver microsome assessed as remaining activity by measuring 1'-hydroxylation of midazolam at 3 x 10^-5 M after 20 mins; assay type: ADME; conditions: liver microsomes, probe midazolam (1'-hydroxylation), read-out: INH

CCCCC1=C(Br)/C(=C/Br)OC1=O
inhibition (INH) (Escherichia coli): 100%
Activity (Bacillus subtilis [1]): 63%
Activity (Bacillus subtilis [2]): 25%

O=C1OC(c2cccc(O)c2O)C(c2ccccc2)=C1O (centres undefined)
IC50 [3]: 187 µM
IC50 [4]: 10.3 µM
IC50 (Liver): 129 µM

CC1C=C(c2ccc(Cl)c(Cl)c2)C(=O)O1 (centres undefined)
MIC (Lichtheimia corymbifera [5]): 7.81 µM (≈ 1.9 µg/mL)
MIC (Nakaseomyces glabratus): > 125 µM
MIC (Aspergillus fumigatus [6]): 7.6 µg/mL (≈ 31.3 µM)
MIC [7]: 31.2 µM (≈ 7.6 µg/mL)
MIC (Candida albicans [8]): 31.2 µM (≈ 7.6 µg/mL)
MIC (Candida tropicalis): > 125 µM
MIC (Aspergillus fumigatus [9]): 7.87 µM (≈ 1.91 µg/mL)
MIC (Lichtheimia corymbifera [10]): 7.6 µg/mL (≈ 31.3 µM)
MIC (Trichosporon beigelii): 31.2 µM (≈ 7.6 µg/mL)
MIC (Pichia kudriavzevii): > 125 µM

COc1ccc(/C=C2/C=C(c3ccc(Br)cc3)OC2=O)cc1OC
IC50 [11]: 26.8 µg/mL (≈ 69.1 µM)

O=C1OC(c2ccc3ccccc3c2)=C/C1=C\c1cc2ccc([N+](=O)[O-])cc2nc1Cl
inhibition (INH) (Rattus norvegicus [12]): 56 - 63%
UI [13]: 0.3

O=C1OC(c2ccccc2)=C/C1=C/c1ccc([N+](=O)[O-])cc1
growth inhibition (GI) (Candida albicans [14]): 66%

O=C(O)Cc1ccccc1Nc1c(Cl)cccc1Cl [DICLOFENAC]
inhibition in vivo at 10 mg/kg (Rattus norvegicus [15]): 78.6%
inhibition in vivo at 10 mg/kg (Mus musculus [16]): 67.7%

Cc1cc(O)c2c(c1)C(c1c(O)cccc1O)OC2=O (centres undefined)
MIC (Globisporangium ultimum): 40 µg/mL (≈ 147 µM)

CC(C)O[C@@H]1OC(=O)[C@@H]2[C@H]1[C@@H]1C=C[C@H]2C1
LD50 (Diaphania hyalinata): 44.51 µM/g

CS(=O)(=O)c1ccc(C2=C(c3ccc(F)c(F)c3)C(=O)OC2)cc1
IC50 [17]: 2800 nM
ED50 (Mus musculus [18]): 0.5 mg/kg
IC50 [19]: 600 nM

CC1=C(O)C(=O)CO1
IC50 (Tyrosinase): 50 µM

COC(=O)C1=C(C)OC(C)(C)C1=O
activity at 20 min, 30 µM (CYP3A4): 57.1%
